In ChEMBL document CHEMBL1201862, “PubChem BioAssay data set” (2004):
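Grown in 96-well plates, cells were treated for 48 hours with each compound at five concentrations. Insufficient inhibition: endpoint recorded as highest concentration tested. GI50: concentration for 50% inhibition of growth.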 Active and inactive are the calls of the source. Rule as the data show it: active = GI50 up to about 1.1 µM and inactive = higher.

Key:
Assay in all cases: NCI anticancer screen, dose series, 48 h
K562 = test system: K562
SF-539 = test system: SF-539
SR = test system: SR
SNB-75 = test system: SNB-75
OVCAR-3 = test system: OVCAR-3
MDA-MB-435 = test system: MDA-MB-435
NCI/ADR-RES = test system: NCI/ADR-RES
Malme-3M = test system: Malme-3M
786-0 = test system: 786-0
HCT-116 = test system: HCT-116
NCI-H23 = test system: NCI-H23
SK-MEL-28 = test system: SK-MEL-28
SN12C = test system: SN12C
OVCAR-8 = test system: OVCAR-8
HCC 2998 = test system: HCC 2998
SW-620 = test system: SW-620
T47D = test system: T47D
MCF7 = test system: MCF7
LOX IMVI = test system: LOX IMVI

Row | Structure (SMILES) | GI50 (K562) | GI50 (SF-539) | GI50 (SR) | GI50 (SNB-75) | GI50 (OVCAR-3) | GI50 (MDA-MB-435) | GI50 (NCI/ADR-RES) | GI50 (Malme-3M) | GI50 (786-0) | GI50 (HCT-116) | GI50 (NCI-H23) | GI50 (SK-MEL-28) | GI50 (SN12C) | GI50 (OVCAR-8) | GI50 (HCC 2998) | GI50 (SW-620) | GI50 (T47D) | GI50 (MCF7) | GI50 (LOX IMVI)
1 | C=CCn1c(S)nnc1C12CC3CC(CC(C3)C1)C2 | 25.4 µM (inactive) | > 100 µM (inactive) | 1.51 µM (inactive) | > 100 µM (inactive) | 59.4 µM (inactive) | 48.9 µM (inactive) | 55.1 µM (inactive) | > 100 µM (inactive) | > 100 µM (inactive) | 46.1 µM (inactive) | 94.4 µM (inactive) | > 100 µM (inactive) | > 100 µM (inactive) | 92.9 µM (inactive) | 76.4 µM (inactive) | > 100 µM (inactive) | 32.8 µM (inactive) | 42.9 µM (inactive) | 86.5 µM (inactive)
2 | O=CCCCCCOCc1ccccc1 | 9.98 µM (inactive) | > 100 µM (inactive) | 39.6 µM (inactive) | > 78.2 µM (inactive) | > 74 µM (inactive) | > 100 µM (inactive) | > 55.8 µM (inactive) | > 67.1 µM (inactive) | 23.8 µM (inactive) | 27 µM (inactive) | 50.7 µM (inactive) | > 100 µM (inactive) | 17.7 µM (inactive) | > 69.8 µM (inactive) | > 100 µM (inactive) | 60.1 µM (inactive) | > 100 µM (inactive) | 54.8 µM (inactive) | 18.3 µM (inactive)
3 | Cc1cc(C)n(-c2nc(C)c(CCO)c(=O)[nH]2)n1 | > 100 µM (inactive) | > 100 µM (inactive) | > 100 µM (inactive) | 97.5 µM (inactive) | > 100 µM (inactive) | > 100 µM (inactive) | 52 µM (inactive) | > 100 µM (inactive) | > 100 µM (inactive) | > 100 µM (inactive) | > 100 µM (inactive) | > 100 µM (inactive) | > 100 µM (inactive) | > 100 µM (inactive) | > 100 µM (inactive) | > 100 µM (inactive) | > 100 µM (inactive) | > 100 µM (inactive) | > 100 µM (inactive)
4 | CC1OC(OC2C(O[C@H]3CC[C@@]4(C)C(=CC[C@H]5[C@@H]6C[C@@H]7O[C@]8(CC[C@@H](C)CO8)[C@@H](C)[C@@H]7[C@@]6(C)CC[C@@H]54)C3)OC(CO)C(O)C2OC2OC(CO)C(O)C(O)C2O)C(O)C(O)C1O (stereo partly drawn) | 14.4 µM (inactive) | 2.15 µM (inactive) | > 100 µM (inactive) | 2.04 µM (inactive) | 1.08 µM (active) | 1.81 µM (inactive) | 2.24 µM (inactive) | 1.69 µM (inactive) | 1.77 µM (inactive) | 2.58 µM (inactive) | 1.89 µM (inactive) | 1.9 µM (inactive) | 8.75 µM (inactive) | 3.19 µM (inactive) | 1.65 µM (inactive) | 0.205 µM (active) | 2.31 µM (inactive) | 2.19 µM (inactive) | 2.38 µM (inactive)
5 | O[C@@H]1C[C@@H]2N[C@@](O)(C[C@@H]2O)[C@H]1O | > 100 µM (inactive) | > 100 µM (inactive) | > 100 µM (inactive) | 84.3 µM (inactive) | > 100 µM (inactive) | > 100 µM (inactive) | > 100 µM (inactive) | > 100 µM (inactive) | > 100 µM (inactive) | > 100 µM (inactive) | > 100 µM (inactive) | > 100 µM (inactive) | > 100 µM (inactive) | > 100 µM (inactive) | > 100 µM (inactive) | > 100 µM (inactive) | > 100 µM (inactive) | > 100 µM (inactive) | > 100 µM (inactive)
6 | COc1ccc([N+](=O)[O-])c2c(NCCCN(C)C)c(C)c(C)nc12 | 37.6 µM (inactive) | > 100 µM (inactive) | 14.3 µM (inactive) | 36.1 µM (inactive) | 96.6 µM (inactive) | > 100 µM (inactive) | > 100 µM (inactive) | 45.1 µM (inactive) | > 100 µM (inactive) | 36.2 µM (inactive) | 44.8 µM (inactive) | > 100 µM (inactive) | > 100 µM (inactive) | > 100 µM (inactive) | > 100 µM (inactive) | 54 µM (inactive) | 77.3 µM (inactive) | 49.9 µM (inactive) | > 100 µM (inactive)
7 | O=C1CCCCCCCCCCC1CCCCCBr (stereo not drawn) | 16.1 µM (inactive) | 22.8 µM (inactive) | 24.7 µM (inactive) | 16.3 µM (inactive) | 17.4 µM (inactive) | 40.8 µM (inactive) | 21.7 µM (inactive) | 15.8 µM (inactive) | 32.4 µM (inactive) | 17 µM (inactive) | 24.4 µM (inactive) | 19.9 µM (inactive) | 22.3 µM (inactive) | 31.8 µM (inactive) | 18.5 µM (inactive) | 42.5 µM (inactive) | 24.2 µM (inactive) | 37 µM (inactive) | 19 µM (inactive)
